# Experimental data from patent US20240252496A1, “SELECTIVE HYPOTHALAMUS PERMEABLE HDAC6 INHIBITORS FORTREATMENT OF LEPTIN-RESISTANT OBESITY” (The Children’s Medical Center Corporation, priority 2022, published 2024).
# Legend:
# WT lean mice = test: 3-week treatment of WT lean mice; assay type: in vivo; conditions: for lean mass, total fat mass, fat percentage / body weight: 3 weeks; for body weight: ACY775 10, ACY738 50 mg/kg i.p.; for liver morphology: end of treatment
# Experimental: Daily food intake (g) during 3 weeks of treatment. Serum leptin (ng/ml) levels were measured after 3 weeks of treatment. Lean mass (g); fat mass (g) and fat percentage (%) after 3 weeks of treatment were measured by DEXA scan. GTT was measured after 1 week of treatment. AOC analysis for GTT was performed. Blood glucose (mg/dl) level was measured after 1 week of treatment. ITT was measured after 2 weeks of treatment. Serum insulin (ng/ml) levels were measured after 3 weeks of treatment.
# HDAC6 = test: Ac-tubulin immunoblotting in HEK293 cells; assay type: cell-based
# HDAC6 KO mice = test: 3-week treatment of DIO WT versus HDAC6 KO mice; assay type: in vivo; conditions: for body weight, HDAC6 KO vs WT DIO mice: 3 weeks i.p., ACY775 10, ACY738 50, Tubastatin A 25 mg/kg/day; for fat mass and fat %, HDAC6 KO vs WT / lean mass, HDAC6 KO vs WT: DEXA; for blood glucose, serum insulin and leptin levels, HDAC6 KO vs WT / food intake, HDAC6 KO vs WT DIO mice / glucose tolerance and insulin sensitivity (GTT, ITT), HDAC6 KO vs WT: mouse, in vivo
# DIO mice [1] = test: Glucose homeostasis in chronically treated DIO mice (GTT, ITT, insulin, HOMA-IR, liver H&E); assay type: in vivo; conditions: for blood glucose levels / glucose tolerance (GTT): after 1 week; for circulating/serum insulin levels / hepatic steatosis (liver H&E) / insulin resistance (HOMA-IR): after 3 weeks
# Experimental: DIO mice were treated with ACY775 (10 mg/kg/day, i.p.) for 3 weeks. Daily body weight (g) of DIO mice treated with vehicle (n=17) or ACY775 (n=17) during 3 weeks of treatment was determined. Daily food intake (g) during 3 weeks of vehicle or ACY775 treatment was assessed. 24 hours' food intake per mouse during the first week of vehicle or ACY775 treatment was determined. Serum leptin (ng/ml) levels after 3 weeks of vehicle (n=24) or ACY775 (n=24) treatment was assessed. Lean mass (g), fat mass (g) and fat percentage (%) after 3 weeks of vehicle (n=17) or ACY775 (n=17) treatment measured by Dual-energy X-ray absorptiometry (DEXA) scan. DEXA scans were performed in two different cohorts. Glucose tolerance test (GTT) after 1 week of vehicle (n=33) or ACY775 (n=26) treated DIO mice was assessed. Area of curve (AOC) analysis for GTT was performed. Blood glucose (mg/dl) levels after 1 week of vehicle (n=17) or ACY775 (n=16) were assessed in treated DIO mice. Insulin tolerance test (ITT) was performed after 2 weeks of vehicle (n=31) or ACY775 (n=21) treatment of DIO mice. Serum insulin (ng/ml) levels were measured after 3 weeks of vehicle (n=22) or ACY775 (n=21) in treated DIO mice. A homeostatic model assessment of insulin resistance (HOMA-IR) was analyzed after 3 weeks of vehicle (n=14) or ACY775 (n=13) treated DIO mice. […]
# Blood glucose (mg/dl) levels were measured after 1 week of vehicle (n=16) or ricolinostat (n=16) treated DIO mice. GTT after 1 week of vehicle (n=17) or ricolinostat (n=16) treatment of DIO mice was assessed. AOC analysis for GTT was performed. ITT after 2 weeks of vehicle (n=17) or ricolinostat (n=16) treated DIG mice was measured. Serum insulin (ng/ml) levels after 3 weeks of vehicle (n=8) or ricolinostat (n=8) treatment were measured in DIO mice. Liver sections from 3 weeks of vehicle or ricolinostat treated DIG mice were stained by H&E.
# DIO mice [2] = test: Single dose food intake in 24 h-fasted DIO mice; assay type: in vivo; conditions: ACY775 10, ACY738 50 mg/kg i.p.
# Experimental: Food intake was analyzed hourly until 3:00 am. […] DEXA scans were performed in two different cohorts.
# db/db mice = test: 3-week treatment of db/db mice; assay type: in vivo; conditions: for glucose tolerance (GTT): 1 week; for ITT: 2 weeks; for body weight heavier than initial body weight: end of 3 weeks, ACY775 10, ACY738 50 mg/kg i.p.
# Experimental: Daily food intake (g), Serum leptin (ng/ml), lean mass (g), fat mass (g) and fat percentage (%) were measured after 3 weeks of treatment measured by DEXA scan. GTT was determined after 1 week of treatment. AOC analysis for GTT was performed and Blood glucose (mg/dl) levels were measured after 1 week of treatment. Blood glucose (mg/dl) levels and Serum insulin (ng/ml) levels were measured after 3 weeks of treatment. ITT was assessed after 2 weeks of treatment. H&E staining of the liver sections was conducted after 3 weeks of treatment.
# DIO mice [3] = test: Metabolic cages (CLAMS) in DIO mice; assay type: in vivo; conditions: for energy expenditure: 3 days, ACY775 10, ACY738 50 mg/kg i.p.
# Experimental: Diet induced obese (DIO) mice were placed into metabolic cages and received ACY775 (10 mg/kg, i.p., n=7) or vehicle (n=8) once a day for 3 days. Energy expenditure, respiratory exchange ratios (RER; VCO2/VO2), ambulatory count (physical activity) from each group of mice were determined. Bar graphs represent average of two dark (8-20 and 32-44 hr) and two light cycles ([…]).
# Comprehensive Lab Animal Monitoring System (CLAMS) was used to measure metabolic parameters such as energy expenditure (EE) and respiratory exchange ratio (RER) and physical activity levels in Vehicle- and ACY775-treated mice.
# DIO mice [4] = test: Conditioned place preference (CPP) assay in DIO mice; assay type: in vivo; conditions: fed and fasting conditions, vs vehicle
# Experimental: DIO mice were treated with vehicle or ACY775 (10 mg/kg, i.p., once a day) for 3 days. On the fourth day, 1 h after the beginning of the light cycle, the mice were administered vehicle or ACY775 (10 mg/kg, i.p.) and the conditioned place preference (CPP) assay under the ad libitum feeding condition was utilized. The CPP assay was performed 6 h later under the ad libitum feeding condition (n=10 mice for both the Vehicle- and ACY775-treated groups). CPP assay under a 20-h fasting condition was also performed. DIG mice were treated with vehicle or ACY775 (10 mg/kg, i.p.) once a day and fasted for 15 h after the third injection. On the fourth day, 1 h after the beginning of the light cycle, the mice were administered vehicle or ACY775 (10 mg/kg body weight, i.p.) and the CPP assay was performed 5 h after this injection under the fasting condition (n=10 mice for both the Vehicle- and ACY775-treated groups).
# Measurements were made of the total distance that the mice traveled during the CPP test, the average velocity of movement during the assay, the total time the mice spent in the dark chamber during the test; the frequency with which the mice traveled to the dark chamber during the test; the total time the mice spent in the food-paired white chamber; the frequency with which the mice traveled to the food paired white chamber; the total time the mice spent in the food-containing zone within the food-paired side chamber; and the frequency with which the mice traveled to the food-containing zone within the food-paired side chamber during the test.
Compound,daily food intake (WT lean mice),insulin sensitivity (ITT) and circulating insulin levels (WT lean mice),"lean mass, total fat mass, fat percentage (WT lean mice)",body weight (WT lean mice),liver morphology (WT lean mice),tubulin acetylation (HDAC6 inhibitor activity) in cells (HDAC6),"body weight, HDAC6 KO vs WT DIO mice (HDAC6 KO mice)","fat mass and fat %, HDAC6 KO vs WT (HDAC6 KO mice)","lean mass, HDAC6 KO vs WT (HDAC6 KO mice)","blood glucose, serum insulin and leptin levels, HDAC6 KO vs WT (HDAC6 KO mice)","food intake, HDAC6 KO vs WT DIO mice (HDAC6 KO mice)","glucose tolerance and insulin sensitivity (GTT, ITT), HDAC6 KO vs WT (HDAC6 KO mice)",insulin tolerance test (ITT) / insulin sensitivity (DIO mice [1]),blood glucose levels (DIO mice [1]),glucose tolerance (GTT) (DIO mice [1]),circulating/serum insulin levels (DIO mice [1]),hepatic steatosis (liver H&E) (DIO mice [1]),insulin resistance (HOMA-IR) (DIO mice [1]),food intake after a single dose (DIO mice [2]),hepatic steatosis (db/db mice),other results
O=C(NO)c1cnc(NC2(c3ccccc3)CC2)nc1 [ACY738],similar,no significant difference in insulin sensitivity and circulating insulin levels,did not detect any alterations,neither ACY775 nor ACY738 affected the body weight,similar,inhibits the HDAC6 activity,slight decrease in the HDAC6KO mice,significantly lower in the wt group,not different,significantly higher in the ACY738-treated HDAC6 KO group,significantly higher in the HDAC6 KO group,did not improve glucose tolerance and increase insulin sensitivity in the HDAC6 KO mice,improved insulin tolerance,significantly reduced,significant improvement of glucose homeostasis,reduced insulin levels,improved hepatic steatosis,ameliorated insulin resistance,significantly reduced/blocked the food intake,did not improve hepatic steatosis,"reduction of bodyweight of the wt mice (HDAC6 KO mice; DIO wt mice, ACY738 50 mg/kg i.p.): around 20%; plasma insulin levels (db/db mice): did not show any significant alterations; glucose tolerance (GTT) (db/db mice): no difference in glucose tolerance; ITT (db/db mice): no significant difference in blood glucose levels; body weight heavier than initial body weight (db/db mice): 2.53%±0.97%; energy expenditure (DIO mice [3]): higher energy expenditure in light cycle, though without significant difference in dark cycle; CPP: cumulative duration in dark side chambers (DIO mice [4]): no significant differences in cumulative duration; CPP: time and frequency in food-containing white side chambers (DIO mice [4]): spent similar time and frequency of appearance; CPP: time and frequency in the food zone (DIO mice [4]): significantly shorter time and displayed lower frequency of appearance in the food zone"
"O=C(NO)c1cnc(NC2(c3cccc(F)c3)CCCCC2)nc1 [ACY775, 2-[[1-(3-fluorophenyl)cyclohexyl]amino]-N-hydroxy-5-pyrimidinecarboxamide]",similar,no significant difference in insulin sensitivity and circulating insulin levels,did not detect any alterations,neither ACY775 nor ACY738 affected the body weight,similar,increases tubulin acetylation,highly significant decrease in the bodyweight of the WT DIO mice when compared to HDAC6 KO DIG mice,significantly lower in the wt group,not different,significantly higher in the ACY775-treated HDAC6 KO group,blocked in the HDAC6 KO mice,could not increase glucose tolerance and insulin sensitivity in the HDAC6 KO mice,significant difference between ACY775-treated mice and those treated with vehicles,significantly reduced,significantly improved glucose tolerance,significantly reduced the circulating insulin levels,almost completely abolished hepatic steatosis,significantly reduced the insulin resistance,significantly reduced/blocked the food intake,did not improve hepatic steatosis,fasting blood glucose after the first week (db/db mice): lower in ACY775-treated mice than vehicle-treated mice; food intake (db/db mice): transitionally reduced by ACY775 treatment during the first 2 days; plasma insulin levels (db/db mice): did not show any significant alterations; glucose tolerance (GTT) (db/db mice): no difference in glucose tolerance; ITT (db/db mice): no significant difference in blood glucose levels; blood glucose lowering at the end of treatment period (db/db mice; 3 weeks): completely diminished; body weight heavier than initial body weight (db/db mice): 3.82%±0.99%; energy expenditure (DIO mice [3]): higher in the both dark and light cycle; respiratory exchange ratio (RER) (DIO mice [3]; dark and light cycles): significantly decreased; CPP: appearance frequency in dark side chambers (DIO mice [4]): similar; CPP: cumulative duration in dark side chambers (DIO mice [4]): no significant differences in cumulative duration; CPP: time and frequency in food-containing white side chambers (DIO mice [4]): significantly shorter time and had lower frequency of appearance in the food-containing white side chambers; CPP: time and frequency in the food zone (DIO mice [4]): significantly shorter time and displayed lower frequency of appearance in the food zone
